Experimental data from patent US12077608B2, “Stapled H2 pyrin peptides” (H. LEE MOFFITT CANCER CENTER AND RESEARCH INSTITUTE, INC., priority 2018, dated 2024).
Where two headings read alike, the source gives them in different places. Bridge positions count the residues as written; N and C are the ends. Square brackets hold non-standard residues; d marks the D form. Ends that are not written are not given here. Peptide text beside a SMILES is read from it. * marks the point of attachment. FITC = O=C1OC2(c3ccc(O)cc3Oc3cc(O)ccc32)c2ccc(NC(=S)*)cc21; S5 = C=CCCC[C@](C)(N)C(=O)O; Nle = CCCC[C@H](N)C(=O)O; βAla = NCCC(=O)O

Experiments:
[1] = test system: caspase-1 activity in Human THP-1 monocytes; test: Promega Caspase-Glo 1 Inflammasome Assay (cell-based bioluminescent caspase-1 activity assay); conditions: for inhibited caspase-1 activities: 5 μM inhibitor, PMA-differentiated THP-1, LPS and nigericin stimulated
From the text: Promega Caspase-Glo™ 1 Inflammasome Assay. A cell-based bioluminescent caspase-1 activity assay (O'Brien et al., 2017) (Promega Caspase-Glo™ | Inflammasome Assay Kit G9951) was used to evaluate the inhibitory activity of SAH-POP1-4 and SAH-POP1-8 on inhibition of inflammasome formation and caspase-1 activation. Human THP-1 monocytes were differentiated with phorbol 12-myristate 13-acetate (PMA), and treated sequentially with lipopolysaccharide (LPS), a Toll-like receptor 4 (TLR4) agonist, and nigericin, a K^+ ionophore to promote K^+ efflux, resulting in NLRP3- and ASC-dependent caspase-1 activation. The cells were then treated with the inhibitors. […] Experimental Procedure for Promega caspase-Glo™ 1 Inflammasome Assay: THP1 cells were seeded at 5×10^5/ml in RPMI1640 medium with 10% FCS in 96-well plates and cultivated in the presence of 50 nM phorbol-12-myristate-13-acetate (PMA) for 24 h. Then the media was replaced with fresh media and incubated for 24 h. The cells were stimulated with 200 ng/ml LPS in E. coli (Sigma) for 3 h. The media was removed and replaced with serum-free media (OptiMEM) containing DMSO (1:1,000), 5 μM inhibitors for 30 min. Cells were then stimulated with the inflammasome activators: 5 μM nigericin 2 h. Control samples were incubated with medium lacking LPS or nigericin. Then the activity of the active caspase-1 was measured by Caspase-Glo™ 1 inflammasome assay (Promega). A cell-based bioluminescent caspase-1 activity assay (Promega Caspase-Glo™ 1 Inflammasome Assay Kit G9951) was used to evaluate the inhibitory activity of SAH-POP1-17 and SAH-POP1-18 on inhibition of inflammasome formation and caspase-1 activation. Human THP-1 monocytes were differentiated with phorbol 12-myristate 13-acetate (PMA), and treated sequentially with lipopolysaccharide (LPS), a Toll-like receptor 4 (TLR4) agonist, and nigericin, a K^+ ionophore to promote K^+ efflux, resulting in NLRP3- and ASC-dependent caspase-1 activation. The cells were then treated with the inhibitors. […] Experimental Procedure for Promega caspase-Glo™ 1 Inflammasome Assay: THP1 cells were seeded at 5×10^5/ml in RPMI1640 medium with 10% FCS in 96-well plates and cultivated in the presence of 50 nM phorbol-12-myristate-13-acetate (PMA) for 24 h. Then the media was replaced with fresh media and incubated for 24 h. The cells were stimulated with 200 ng/ml LPS in E. coli (Sigma) for 3 h. The media was removed and replaced with serum-free media (OptiMEM) containing DMSO (1:1,000), 5 μM inhibitors for 30 min. Cells were then stimulated with the inflammasome activators: 5 μM nigericin 2 h. Control samples were incubated with medium lacking LPS or nigericin. Then the activity of the active caspase-1 was measured by Caspase-Glo™ 1 inflammasome assay (Promega).

[2] = Circular dichroism (CD) secondary structure of the peptides; assay type: physicochemical; conditions: aqueous solution; 100 μM peptide in 10 mM potassium phosphate, 100 mM potassium fluoride buffer (pH=7.5)
Protocol: Circular dichroism (CD) was used to determine the secondary structure of the peptides. […] Hydrocarbon stapling promoted α-helix contents with SAH-POP1-4 and SAH-POP1-8 having the highest in aqueous solution.
CD spectra were recorded on an AVIV Model 215 Circular Dichroism Spectrometer. Each spectrum was collected with the wavelength between 190 to 260 nm, 0.5 nm increments, and 0.5 s averaging time using a 1-mm path length cell. The peptide concentration was 100 μM in 10 mM potassium phosphate and 100 mM potassium fluoride buffer (pH=7.5). The studied peptides were completely dissolved in this buffer. CD spectra were initially plotted as wavelength versus millidgree, the default output of the instrument. Once the precise peptide concentration was confirmed, the mean residue ellipticity [Θ] was calculated for the y-axis.

[3] = target: T1, GST-NLRP3^PYD (Homo sapiens, UniProt Q96P20); test: KD (μM) | GST-NLRP3^PYD
T1 construct: human NLRP3 (residues 3-110) was cloned into a pET-21b vector; made in house; host or cells: E. coli BL21 DE3
From the text: Table printed on a drawing sheet, FIG. 10
Head of the field: KD (μM) | GST-NLRP3^PYD
The patent's description of the figure: FIG. 10 is a table showing the results from a fluorescence anisotropy binding assay to determine the accurate binding affinities of stapled peptides fPOP1-H2 (SEQ ID NO: 2), fSAH-POP1-1 (SEQ ID NO: 1), fSAH-POP1-3 (SEQ ID NO: 3), fSAH-POP1-4 (SEQ ID NO: 4), fSAH-POP1-5 (SEQ ID NO: 5), fSAH-POP1-6 (SEQ ID NO: 6), fSAH-POP1-7 (SEQ ID NO: 7), fSAH-POP1-8 (SEQ ID NO: 8), fSAH-POP1-9 (SEQ ID NO: 9), fSAH-POP1-10 (SEQ ID NO: 10), fSAH-POP1-11 (SEQ ID NO: 11), fSAH-POP1-12 (SEQ ID NO: 12), fSAH-POP1-13 (SEQ ID NO: 13), fSAH-POP1-14 (SEQ ID NO: 14), fSAH-POP1-15 (SEQ ID NO: 15), fSAH-POP1-16 (SEQ ID NO: 16), fSAH-POP1-17 (SEQ ID NO: 17), fSAH-POP1-18 (SEQ ID NO: 18), fSAH-POP1-19 (SEQ ID NO: 19), fSAH-POP1-20 (SEQ ID NO: 20), fSAH-POP1-21 (SEQ ID NO: 21), fSAH-POP1-22 (SEQ ID NO: 22), fSAH-POP1-23 (SEQ ID NO: 23), fSAH-POP1-24 (SEQ ID NO: 24), fSAH-POP1-25 (SEQ ID NO: 25), fSAH-POP1-26 (SEQ ID NO: 26), fSAH-POP1-27 (SEQ ID NO: 27), fSAH-POP1-28 (SEQ ID NO: 28), fSAH-POP1-29 (SEQ ID NO: 29), fSAH-POP1-30 (SEQ ID NO: 30), fSAH-POP1-31 (SEQ ID NO: 31).
First copying reader's note: In the structures S5, NL (N with lowered L) and NH2 carry lowered signs, a drawn bracket joins the two S5 residues (staple), and the SEQ ID NO column is printed outside the table frame. […]

[4] = test system: ASC speck formation in THP-1 ASC-GFP cells; test: ASC speck assay, live-cell imaging; assay type: cell-based, Human; conditions: 20 μM peptide; nigericin-activated THP-1 ASC-GFP cells
Protocol: ASC speck is a hallmark of inflammasome formation (Dick et al., 2016; Hoss et al., 2017) and observable by microscopy (Doyle et al., 2012; Stutz et al., 2013). THP-1 ASC-GFP cells stably expressing the ASC-GFP fusion protein (InvivoGen Catalog #: thp-ascgfp) were used to visualize the inhibitory effect of SAH-POP1-4 on ASC specks formation (Fernandes-Alnemri et al., 2007).
Experimental Procedure for ASC Speck Assay. THP1 ASC-GFP cells were seeded at 2×10^6/ml (0.7-1 mL) in RPMI1640 medium with 10% FCS in FluoroDish (FD35-100) and cultivated in the presence of 50 nM phorbol-12-myristate-13-acetate (PMA) for 24 h, then media was replaced by fresh media and incubated for 24 h. Then cells were stimulated with 200 ng/ml LPS from E. coli (sigma) for 3 h. The media was removed and replaced with serum-free medium (OptiMEM) containing DMSO (1:1,000), 20 μM inhibitors for 30 min. […] Control samples were incubated with media lacking LPS or nigericin. Then, ASC specks were tested by confocal microscopy SP8 (Leica Microsystems).
ASC speck is the hallmark of inflammasome formation and observable by microscopy. THP-1 ASC-GFP cells stably expressing the ASC-GFP fusion protein (InvivoGen Catalog #: thp-ascgfp) were used to visualize the inhibitory effect of SAH-POP1-17 on ASC specks formation (Fernandes-Alnemri et al., 2007). […] SAH-POP1-17 at 5 μM inhibited ASC speck formation to 4%, and SAH-POP1-18 at 5 μM inhibited ASC speck formation to 8%.

T1 sequence (Q96P20 3-110): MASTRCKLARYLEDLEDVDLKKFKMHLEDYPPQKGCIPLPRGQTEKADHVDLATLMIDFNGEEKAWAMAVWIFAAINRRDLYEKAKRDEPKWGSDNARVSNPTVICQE

Molecule | inhibited caspase-1 activities [1] [%] | cell permeability ([1]; THP-1 cells, inferred from caspase-1 assay) | α-helical structure / α-helix contents by circular dichroism [2] | Kd [3] [µM] | cell permeability [1] | inhibition of ASC speck formation [4]
CCCC[C@H](NC(=O)[C@H](CCCCN)NC(=O)[C@]1(C)CCCC=CCCC[C@](C)(NC(=O)[C@@H](N)CCC(=O)O)C(=O)N[C@@H](CC(C)C)C(=O)N[C@@H](CCCCN)C(=O)N[C@@H](CCCCN)C(=O)N1)C(=O)N[C@@H](CCCCN)C(=O)N[C@@H](CC(C)C)C(=O)NCC(=O)N[C@H](C(=O)N[C@@H](C)C(N)=O)[C@@H](C)O [SAH-POP1-8] (H-E[S5]LKK[S5]K[Nle]KLGTA-NH2; staple 2-6; N-terminus assumed) | 41 | cell permeable | highest |  |  | 
CCCC[C@H](NC(=O)[C@H](CCCCN)NC(=O)[C@H](Cc1ccccc1)NC(=O)[C@H](CCCCN)NC(=O)[C@H](CCCCN)NC(=O)[C@H](CC(C)C)NC(=O)[C@H](CCC(=O)O)NC(=O)[C@H](CCC(=O)O)NC(=O)CCNC(=S)Nc1ccc2c(c1)C(=O)OC21c2ccc(O)cc2Oc2cc(O)ccc21)C(=O)N[C@@H](CCCCN)C(=O)N[C@@H](CC(C)C)C(=O)NCC(=O)N[C@H](C(=O)N[C@H](C(N)=O)C(C)C)[C@@H](C)O [fPOP1-H2] ({FITC-βAla}-EELKKFK[Nle]KLGTV-NH2) |  |  |  | 27 ± 2.3 |  | 
SAH-POP1-4: hydrocarbon stapled peptide, amino acid sequence ES5LKKS5KMKLGTV (E[S5]LKK[S5]KMKLGTV-NH2; staple 2-6; N-terminus assumed; SMILES CSCC[C@H](NC(=O)[C@H](CCCCN)NC(=O)[C@]1(C)CCCC=CCCC[C@](C)(NC(=O)[C@@H](N)CCC(=O)O)C(=O)N[C@@H](CC(C)C)C(=O)N[C@@H](CCCCN)C(=O)N[C@@H](CCCCN)C(=O)N1)C(=O)N[C@@H](CCCCN)C(=O)N[C@@H](CC(C)C)C(=O)NCC(=O)N[C@H](C(=O)N[C@H](C(N)=O)C(C)C)[C@@H](C)O) | 43 |  | highest |  | cell permeable | completely inhibited
